In publication PMC10349806 (Nature Communications, 2023):
“And” between values parts separate entries of the source, which are not always exact repeats. Equal entries are not always repeated.

Key:
PfCRT variant Y89A = biological target: T1, PfCRT variant Y89A (Plasmodium falciparum, UniProt Q9N623, A220S/I356T/K76T/M74I/N326S/N75E/Q271E/R371I/Y89A); test: CQ uptake assay, oocytes expressing Y89A; type: cell-based
T1 sequence (Q9N623 1-424 M74I/N75E/K76T/Y89A/A220S/Q271E/N326S/I356T/R371I): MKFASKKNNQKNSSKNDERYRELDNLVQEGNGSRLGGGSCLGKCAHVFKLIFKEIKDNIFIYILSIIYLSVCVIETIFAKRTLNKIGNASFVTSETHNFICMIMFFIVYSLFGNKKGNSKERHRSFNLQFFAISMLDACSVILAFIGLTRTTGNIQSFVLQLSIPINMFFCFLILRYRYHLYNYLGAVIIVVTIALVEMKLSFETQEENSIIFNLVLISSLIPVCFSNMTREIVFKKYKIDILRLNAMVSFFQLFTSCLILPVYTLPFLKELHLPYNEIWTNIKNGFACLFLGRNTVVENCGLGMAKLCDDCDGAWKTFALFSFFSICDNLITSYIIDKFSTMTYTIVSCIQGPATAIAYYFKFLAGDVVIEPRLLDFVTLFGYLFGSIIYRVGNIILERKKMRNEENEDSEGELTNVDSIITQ
Experimental: (§1) Site-directed mutagenesis of PfCRT^Dd2 was performed as described using the megaprimer method with overlap extension[21],[54]. The primer pairs used are listed in Supplementary Table 6. Please note that a codon-optimized and oocyte-adapted version of PfCRT^Dd2 was used[22] (Supplementary Fig. 16). The resulting DNA fragment was cloned into the SP64T expression vector and verified by sequencing.
(§2) Oocytes were obtained as described previously. Briefly, adult (>2 years old) female X. laevis frogs (NASCO) were anesthetized in a cooled solution of ethyl 3-amino benzoate methanesulfonate (0.1%, w/v), followed by a surgical removal of parts of the ovary. The ovary lobes were carefully dissected and small pieces of oocytes were incubated in Ca^2+-free ND96 buffer (96 mM NaCl, 2 mM KCl, 1 mM MgCl2 buffered with 5 mM HEPES/NaOH, pH 7.5) supplemented with collagenase D (0.1%, w/v; Roche), BSA (0.5%, w/v), and 9 mm Na2HPO4 at 18 °C for 14-16 h while gentle shaking. After incubation, the oocytes were carefully washed several times with ND96 buffer (96 mM NaCl, 2 mM KCl, 1.8 mM CaCl2, 1 mM MgCl2 buffered with 5 mM HEPES/NaOH, pH 7.5) supplemented with 100 mg l^−1 gentamycin). Defolliculated and healthy-looking stage V-VI oocytes were manually selected for RNA microinjection. The RNA was generated as following: The codon-optimized sequences of PfCRT variants were cloned into the pSP64T expression vector. After vector linearization using the restriction endonucleases BamHI or SalI (New England Biolabs), transcription was performed using the in vitro SP6 mMessage mMachine Kit (Ambion)[34]. The obtained RNA was kept at −80 °C and diluted with nuclease-free water to a concentration of 0.6 μg μl^−1. Precision-bore glass capillary tubes (3.5-inch glass capillaries; Drummond Scientific Co.) were pulled on a vertical puller (P-87 Flaming/Brown micropipette puller, Sutter Instrument Co.), graduated, and placed on a microinjector (Nanoject II Auto-Nanoliter Injector, Drummond Scientific Co.). 50 nl of nuclease-free water alone (control oocytes) or 50 nl of 0.6 μg μl^−1 RNA were injected under stereomicroscopic control. Injected oocytes were incubated for 46–72 h at 18 °C with twice-daily buffer changes before usage in experiments.
Drug uptake assays were performed as described previously[21],[22],[24],[34]. […] The direction of radio-labeled drug transport is here from the mostly acidic extracellular solution (pH 4.5 or 6.0, as indicated) into the oocyte cytosol (pH ∼ 7.2), which corresponds to the efflux of drug from the acidic digestive vacuole (pH 5.2) into the parasite cytoplasm (pH 7.2). The topology of PfCRT in the oolemma is such that both the N- and C-terminus face the extracellular milieu[3],[22]. In the parasite, the N- and C-terminus face the lumen of the digestive vacuole. […] For determination of the amount of drug uptake for each oocyte, the reaction medium was removed and the oocytes were washed three times with 2 ml of ice-cold ND96 buffer. Each oocyte was individually transferred to a scintillation vial containing 5% sodium dodecyl sulfate (200 μl) for lysis. […] Oocytes that were injected with water instead of RNA were analyzed in parallel, representing the uptake of a drug by diffusion and/or endogenous permeation pathways. […] The specific PfCRT-mediated uptake was determined by subtracting the corresponding background value measured in water-injected oocytes from that of PfCRT-expressing oocytes. […]

PfCRT variant E207K = test: CQ uptake assay, oocytes expressing E207K; type: cell-based, Plasmodium falciparum
Experimental: as §1, §2
Drug uptake assays were performed as described previously[21],[22],[24],[34]. […] The direction of radio-labeled drug transport is here from the mostly acidic extracellular solution (pH 4.5 or 6.0, as indicated) into the oocyte cytosol (pH ∼ 7.2), which corresponds to the efflux of drug from the acidic digestive vacuole (pH 5.2) into the parasite cytoplasm (pH 7.2). The topology of PfCRT in the oolemma is such that both the N- and C-terminus face the extracellular milieu[3],[22]. In the parasite, the N- and C-terminus face the lumen of the digestive vacuole. CQ uptake kinetics were performed by incubating oocytes in ND96 buffer adjusted to a pH of 4.5, 5.0, 5.5, or 6.0 and supplemented with 50 nM [^3H]CQ and one of 7 different CQ concentrations (10 µM, 50 µM, 100 µM, 200 µM, 300 µM, 400 µM, 500 µM CQ). The reaction was stopped at the 60 min time point, which is in the linear uptake range[22],[34] (Supplementary Fig. 17). For determination of the amount of drug uptake for each oocyte, the reaction medium was removed and the oocytes were washed three times with 2 ml of ice-cold ND96 buffer. Each oocyte was individually transferred to a scintillation vial containing 5% sodium dodecyl sulfate (200 μl) for lysis. The radioactivity of each sample was measured using a liquid scintillation analyzer Tri-Carb 4910 TR (PerkinElmer). Oocytes that were injected with water instead of RNA were analyzed in parallel, representing the uptake of a drug by diffusion and/or endogenous permeation pathways. The resulting value represents the “background“ level of drug accumulation in oocytes (in-depth discussion in[22]). […]

[1] = E207K, 50 µM CQ, 1 h, mean ± SEM

CCN(CC)CCCC(C)Nc1ccnc2cc(Cl)ccc12 (centres unmarked) [CQ, chloroquine]
Activity at pH 4.5 (PfCRT variant Y89A; Y89A, 50 µM CQ, 1 h, mean ± SEM): 0.73 ± 0.05 pmol h-1 oocyte-1
R-value (PfCRT variant Y89A; Y89A, CQ transport at pH 4.5 / pH 6.0): 0.43 ± 0.06
Y89A transport activity pH 4.5 (PfCRT variant Y89A; pH 4.5, single replicates, Fig 1d left): 0.79 pmol oocyte-1 h-1 and 0.80 pmol oocyte-1 h-1 and 0.60 pmol oocyte-1 h-1
Y89A R-value (PfCRT variant Y89A; pH 4.5 vs pH 6.0, Fig 1d left): 0.47 and 0.40 and 0.37
Y89A transport activity pH 6.0 (PfCRT variant Y89A; pH 6.0, single replicates, Fig 1d left): 1.68 pmol oocyte-1 h-1 and 1.99 pmol oocyte-1 h-1 and 1.64 pmol oocyte-1 h-1
Activity at pH 4.5 (PfCRT variant E207K; [1]): 1.91 ± 0.10 pmol h-1 oocyte-1
Activity at pH 6.0 (PfCRT variant E207K; [1]): 2.34 ± 0.24 pmol h-1 oocyte-1
R-value (PfCRT variant E207K; E207K, CQ transport at pH 4.5 / pH 6.0): 0.83 ± 0.04
E207K transport activity pH 4.5 (PfCRT variant E207K; pH 4.5, individual replicates, Fig 6b): 2.09 pmol oocyte-1 h-1 and 1.67 pmol oocyte-1 h-1 and 1.96 pmol oocyte-1 h-1
E207K transport activity pH 6.0 (PfCRT variant E207K; pH 6.0, individual replicates, Fig 6b): 2.92 pmol oocyte-1 h-1 and 1.97 pmol oocyte-1 h-1 and 2.13 pmol oocyte-1 h-1
E207K R-value (PfCRT variant E207K; ratio of activity pH 4.5 / pH 6.0): 0.72 and 0.85 and 0.92
